Experimental data published in ChEMBL document CHEMBL1142609, “An apigenin-derived xanthine oxidase inhibitor from Palhinhaea cernua” (J Nat Prod, 2006).

Assays:
[1] = biological target: T1, Xanthine dehydrogenase/oxidase (Homo sapiens, UniProt P47989); assay: Inhibition of xanthine oxidase
[2] = biological target: T1, Xanthine dehydrogenase/oxidase; assay: Inhibition of xanthine oxidase by competitive Lineweaver-Burke plot
[3] = biological target: T1, Xanthine dehydrogenase/oxidase; assay: Inhibition of xanthine oxidase by noncompetitive Lineweaver-Burke plot; settings: read-out: Kinact

T1 sequence (P47989 whole entry): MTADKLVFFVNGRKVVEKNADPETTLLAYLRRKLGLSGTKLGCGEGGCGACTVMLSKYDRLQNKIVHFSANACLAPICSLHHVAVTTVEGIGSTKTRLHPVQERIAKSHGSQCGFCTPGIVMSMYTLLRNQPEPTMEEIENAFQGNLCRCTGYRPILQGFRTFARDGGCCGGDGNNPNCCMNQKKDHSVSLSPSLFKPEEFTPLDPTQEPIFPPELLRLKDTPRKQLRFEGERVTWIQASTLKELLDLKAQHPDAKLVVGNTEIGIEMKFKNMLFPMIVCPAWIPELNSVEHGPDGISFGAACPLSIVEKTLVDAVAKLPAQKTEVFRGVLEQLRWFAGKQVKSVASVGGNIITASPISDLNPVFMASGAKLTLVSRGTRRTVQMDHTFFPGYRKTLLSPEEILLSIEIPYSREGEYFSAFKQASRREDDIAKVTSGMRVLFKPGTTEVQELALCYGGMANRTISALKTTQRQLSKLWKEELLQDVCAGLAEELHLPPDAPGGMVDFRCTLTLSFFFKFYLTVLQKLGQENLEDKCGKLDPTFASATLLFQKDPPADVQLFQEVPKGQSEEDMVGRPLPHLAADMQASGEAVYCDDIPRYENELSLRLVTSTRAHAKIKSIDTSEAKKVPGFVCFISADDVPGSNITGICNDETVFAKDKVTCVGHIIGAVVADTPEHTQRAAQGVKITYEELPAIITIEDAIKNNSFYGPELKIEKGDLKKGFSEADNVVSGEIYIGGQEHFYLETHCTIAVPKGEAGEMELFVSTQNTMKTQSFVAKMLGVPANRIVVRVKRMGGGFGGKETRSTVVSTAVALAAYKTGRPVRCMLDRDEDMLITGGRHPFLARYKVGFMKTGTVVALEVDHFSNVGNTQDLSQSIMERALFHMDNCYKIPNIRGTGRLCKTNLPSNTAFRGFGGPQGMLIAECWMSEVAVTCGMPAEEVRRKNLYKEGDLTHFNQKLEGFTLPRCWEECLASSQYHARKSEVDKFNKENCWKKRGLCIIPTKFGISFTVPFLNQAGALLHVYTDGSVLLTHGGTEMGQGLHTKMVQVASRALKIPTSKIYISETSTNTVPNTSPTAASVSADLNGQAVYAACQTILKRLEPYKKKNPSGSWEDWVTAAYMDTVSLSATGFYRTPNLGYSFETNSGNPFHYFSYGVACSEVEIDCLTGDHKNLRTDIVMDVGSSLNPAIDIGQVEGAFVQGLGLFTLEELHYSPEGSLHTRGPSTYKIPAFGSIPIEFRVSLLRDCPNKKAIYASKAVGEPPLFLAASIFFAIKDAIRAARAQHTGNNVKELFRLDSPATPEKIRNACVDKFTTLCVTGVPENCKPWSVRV

Row | Compound | IC50 [1] [µM] | Ki [2] [µM] | Ki [3] [µM]
1 | O=C(/C=C/c1ccc(O)cc1)OC[C@@H]1O[C@H](Oc2ccc(-c3cc(=O)c4c(O)cc(O)cc4o3)cc2)[C@@H](O)[C@H](O)[C@H]1O | > 100 | – | –
2 | O=C(/C=C/c1ccc(O)cc1)O[C@@H]1[C@@H](Oc2ccc(-c3cc(=O)c4c(O)cc(O)cc4o3)cc2)O[C@@H](CO)[C@H](O)[C@H]1O | 24 | 14.3 | 93.7
3 | O=C(/C=C/c1ccc(O)cc1)OC[C@@H]1O[C@H](Oc2ccc(-c3cc(=O)c4c(O)cc(O)cc4o3)cc2)[C@@H](OC(=O)/C=C/c2ccc(O)cc2)[C@H](O)[C@H]1O | > 100 | – | –
